# Target: FXR (Homo sapiens (Human), UniProt Q96RI1)
# Assay: FXR EC50 (FXR agonist potency reported with each Example)
# Assay type: cell-based
# Chain of FXR (Q96RI1 262-486): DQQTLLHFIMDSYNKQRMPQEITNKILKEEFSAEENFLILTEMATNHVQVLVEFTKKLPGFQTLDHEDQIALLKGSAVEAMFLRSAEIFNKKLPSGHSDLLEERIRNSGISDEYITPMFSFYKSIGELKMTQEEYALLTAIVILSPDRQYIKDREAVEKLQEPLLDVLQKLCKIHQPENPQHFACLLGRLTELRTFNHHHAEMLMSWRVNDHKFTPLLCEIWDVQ
row,SMILES,EC50 [µM]
1,"CC1(c2nc(C34CCC(CN(C(=O)C56CC(F)(C5)C6)c5cccc(-c6nnc(C7CC7)o6)c5)(CC3)CC4)no2)CC1 [Example 154, N-(3-(5-cyclopropyl-1,3,4-oxadiazol-2-yl)phenyl)-3-fluoro-N-((4-(5-(1-methylcyclopropyl)-1,2,4-oxadiazol-3-yl)bicyclo[2.2.2]octan-1-yl)methyl) bicyclo[1.1.1]pentane-1-carboxamide]",0.027
2,"CC1(c2nc(C34CCC(CN(C(=O)C56CC(F)(C5)C6)c5cccc(-c6nnc(C7CC7)o6)c5)(CC3)CC4)no2)COC1 [Example 155, N-(3-(5-cyclopropyl-1,3,4-oxadiazol-2-yl)phenyl)-3-fluoro-N-((4-(5-(3-methyloxetan-3-yl)-1,2,4-oxadiazol-3-yl)bicyclo[2.2.2]octan-1-yl)methyl)bicyclo[1.1.1]pentane-1-carboxamide]",0.072
3,"O=C(N(CC12CCC(c3noc(C(F)F)n3)(CC1)CC2)c1cccc(-c2nnc(C3CC3)o2)c1)C12CC(F)(C1)C2 [Example 156, N-(3-(5-cyclopropyl-1,3,4-oxadiazol-2-yl)phenyl)-N-((4-(5-(difluoromethyl)-1,2,4-oxadiazol-3-yl)bicyclo[2.2.2]octan-1-yl)methyl)-3-fluorobicyclo[1.1.1]pentane-1-carboxamide]",0.103
4,"CC(C)(C)c1nc(C23CCC(CN(C(=O)C45CC(F)(C4)C5)c4cccc(-c5nnc(C6CC6)o5)c4)(CC2)CC3)no1 [Example 157, N-((4-(5-(tert-butyl)-1,2,4-oxadiazol-3-yl)bicyclo[2.2.2]octan-1-yl)methyl)-N-(3-(5-cyclopropyl-1,3,4-oxadiazol-2-yl)phenyl)-3-fluorobicyclo[1.1.1]pentane-1-carboxamide]",0.043
5,"O=C(N(CC12CCC(c3nc(C4CC4)no3)(CC1)CC2)c1cccc(-c2cnn(S(=O)(=O)C3CC3)c2)c1)C12CC(F)(C1)C2 [Example 158, N-((4-(3-cyclopropyl-1,2,4-oxadiazol-5-yl)bicyclo[2.2.2]octan-1-yl)methyl)-N-(3-(1-(cyclopropylsulfonyl)-1H-pyrazol-4-yl)phenyl)-3-fluorobicyclo[1.1.1]pentane-1-carboxamide]",0.043
6,"CS(=O)(=O)n1cc(-c2cccc(N(CC34CCC(c5nc(C6CC6)no5)(CC3)CC4)C(=O)C34CC(F)(C3)C4)c2)cn1 [Example 159, N-((4-(3-cyclopropyl-1,2,4-oxadiazol-5-yl)bicyclo[2.2.2]octan-1-yl)methyl)-3-fluoro-N-(3-(1-(methylsulfonyl)-1H-pyrazol-4-yl)phenyl)bicyclo[1.1.1]pentane-1-carboxamide]",0.073
7,"O=C(N(CC12CCC(c3nc(C4CC4)no3)(CC1)CC2)c1cccc(-c2cnn(C(F)F)c2)c1)C12CC(F)(C1)C2 [Example 160, N-((4-(3-cyclopropyl-1,2,4-oxadiazol-5-yl)bicyclo[2.2.2]octan-1-yl)methyl)-N-(3-(1-(difluoromethyl)-1H-pyrazol-4-yl)phenyl)-3-fluorobicyclo[1.1.1]pentane-1-carboxamide]",0.043
8,"O=C(N(CC12CCC(c3nc(C4CC4)no3)(CC1)CC2)c1cccc(-c2cnn(CC(F)F)c2)c1)C12CC(F)(C1)C2 [Example 161, N-((4-(3-cyclopropyl-1,2,4-oxadiazol-5-yl)bicyclo[2.2.2]octan-1-yl)methyl)-N-(3-(1-(2,2-difluoroethyl)-1H-pyrazol-4-yl)phenyl)-3-fluorobicyclo[1.1.1]pentane-1-carboxamide]",0.096
9,"O=C(N(CC12CCC(c3nc(C4CC4)no3)(CC1)CC2)c1cccc(-c2cnn(CC(F)(F)F)c2)c1)C12CC(F)(C1)C2 [Example 162, N-((4-(3-cyclopropyl-1,2,4-oxadiazol-5-yl)bicyclo[2.2.2]octan-1-yl)methyl)-3-fluoro-N-(3-(1-(2,2,2-trifluoroethyl)-1H-pyrazol-4-yl)phenyl)bicyclo[1.1.1]pentane-1-carboxamide]",0.116
10,"CC(C)c1nc(-c2cccc(N(CC34CCC(c5cc(C6CC6)nn5C)(CC3)CC4)C(=O)C34CC(F)(C3)C4)c2)no1 [Example 163, N-((4-(3-cyclopropyl-1-methyl-1H-pyrazol-5-yl)bicyclo[2.2.2]octan-1-yl)methyl)-3-fluoro-N-(3-(5-isopropyl-1,2,4-oxadiazol-3-yl)phenyl)bicyclo[1.1.1]pentane-1-carboxamide]",0.156
11,"Cn1nc(C2CC2)cc1C12CCC(CN(C(=O)C34CC(F)(C3)C4)c3cccc(-c4noc(C(F)F)n4)c3)(CC1)CC2 [Example 164, N-((4-(3-cyclopropyl-1-methyl-1H-pyrazol-5-yl)bicyclo[2.2.2]octan-1-yl)methyl)-N-(3-(5-(difluoromethyl)-1,2,4-oxadiazol-3-yl)phenyl)-3-fluorobicyclo[1.1.1]pentane-1-carboxamide]",0.104
12,"Cn1nc(C2CC2)cc1C12CCC(CN(C(=O)C34CC(F)(C3)C4)c3cccc(-c4noc(C(C)(C)C)n4)c3)(CC1)CC2 [Example 165, N-(3-(5-(tert-butyl)-1,2,4-oxadiazol-3-yl)phenyl)-N-((4-(3-cyclopropyl-1-methyl-1H-pyrazol-5-yl)bicyclo[2.2.2]octan-1-yl)methyl)-3-fluorobicyclo[1.1.1]pentane-1-carboxamide]",0.124
13,"Cn1nc(C2CC2)cc1C12CCC(CN(C(=O)C34CC(F)(C3)C4)c3cccc(-c4noc(C5(C)CC5)n4)c3)(CC1)CC2 [Example 166, N-((4-(3-cyclopropyl-1-methyl-1H-pyrazol-5-yl)bicyclo[2.2.2]octan-1-yl)methyl)-3-fluoro-N-(3-(5-(1-methylcyclopropyl)-1,2,4-oxadiazol-3-yl)phenyl)bicyclo[1.1.1]pentane-1-carboxamide]",0.082
14,"Cn1nc(C23CCC(CN(C(=O)C45CC(F)(C4)C5)c4cccc(-c5noc(C(C)(C)C)n5)c4)(CC2)CC3)cc1C1CC1 [Example 167, N-(3-(5-(tert-butyl)-1,2,4-oxadiazol-3-yl)phenyl)-N-((4-(5-cyclopropyl-1-methyl-1H-pyrazol-3-yl)bicyclo[2.2.2]octan-1-yl)methyl)-3-fluorobicyclo[1.1.1]pentane-1-carboxamide]",0.069
15,"Cn1nc(C23CCC(CN(C(=O)C45CC(F)(C4)C5)c4cccc(-c5noc(C(F)F)n5)c4)(CC2)CC3)cc1C1CC1 [Example 168, N-((4-(5-cyclopropyl-1-methyl-1H-pyrazol-3-yl)bicyclo[2.2.2]octan-1-yl)methyl)-N-(3-(5-(difluoromethyl)-1,2,4-oxadiazol-3-yl)phenyl)-3-fluorobicyclo[1.1.1]pentane-1-carboxamide]",0.111
16,"CC(C)c1nc(-c2cccc(N(CC34CCC(c5cc(C6CC6)n(C)n5)(CC3)CC4)C(=O)C34CC(F)(C3)C4)c2)no1 [Example 169, N-((4-(5-cyclopropyl-1-methyl-1H-pyrazol-3-yl)bicyclo[2.2.2]octan-1-yl)methyl)-3-fluoro-N-(3-(5-isopropyl-1,2,4-oxadiazol-3-yl)phenyl)bicyclo[1.1.1]pentane-1-carboxamide]",0.098
17,"Cn1nc(C23CCC(CN(C(=O)C45CC(F)(C4)C5)c4cccc(-c5noc(C6CC6)n5)c4)(CC2)CC3)cc1C1CC1 [Example 170, N-(3-(5-cyclopropyl-1,2,4-oxadiazol-3-yl)phenyl)-N-((4-(5-cyclopropyl-1-methyl-1H-pyrazol-3-yl)bicyclo[2.2.2]octan-1-yl)methyl)-3-fluorobicyclo[1.1.1]pentane-1-carboxamide]",0.074
18,"CC(C)(C)c1noc(C23CCC(CN(C(=O)C45CC(F)(C4)C5)c4cccc(-c5noc(C6CC6)n5)c4)(CC2)CC3)n1 [Example 171, N-((4-(3-(tert-butyl)-1,2,4-oxadiazol-5-yl)bicyclo[2.2.2]octan-1-yl)methyl)-N-(3-(5-cyclopropyl-1,2,4-oxadiazol-3-yl)phenyl)-3-fluorobicyclo[1.1.1]pentane-1-carboxamide]",0.0376
19,"O=C(N(CC12CCC(c3nc(C(F)F)no3)(CC1)CC2)c1cccc(-c2noc(C3CC3)n2)c1)C12CC(F)(C1)C2 [Example 172, N-(3-(5-cyclopropyl-1,2,4-oxadiazol-3-yl)phenyl)-N-((4-(3-(difluoromethyl)-1,2,4-oxadiazol-5-yl)bicyclo[2.2.2]octan-1-yl)methyl)-3-fluorobicyclo[1.1.1]pentane-1-carboxamide]",0.154
20,"CC1(c2nc(-c3cccc(N(CC45CCC(c6nc(C(F)F)no6)(CC4)CC5)C(=O)C45CC(F)(C4)C5)c3)no2)COC1 [Example 173, N-((4-(3-(difluoromethyl)-1,2,4-oxadiazol-5-yl)bicyclo[2.2.2]octan-1-yl)methyl)-3-fluoro-N-(3-(5-(3-methyloxetan-3-yl)-1,2,4-oxadiazol-3-yl)phenyl)bicyclo[1.1.1]pentane-1-carboxamide]",0.139
21,"CC(C)(C)c1noc(C23CCC(CN(C(=O)C45CC(F)(C4)C5)c4cccc(-c5noc(C6(C)COC6)n5)c4)(CC2)CC3)n1 [Example 174, N-((4-(3-(tert-butyl)-1,2,4-oxadiazol-5-yl)bicyclo[2.2.2]octan-1-yl)methyl)-3-fluoro-N-(3-(5-(3-methyloxetan-3-yl)-1,2,4-oxadiazol-3-yl)phenyl)bicyclo[1.1.1]pentane-1-carboxamide]",0.04
22,"CC(C)c1noc(C23CCC(CN(C(=O)C45CC(F)(C4)C5)c4cccc(-c5noc(C6(C)CC6)n5)c4)(CC2)CC3)n1 [Example 175, 3-fluoro-N-((4-(3-isopropyl-1,2,4-oxadiazol-5-yl)bicyclo[2.2.2]octan-1-yl)methyl)-N-(3-(5-(1-methylcyclopropyl)-1,2,4-oxadiazol-3-yl)phenyl)bicyclo[1.1.1]pentane-1-carboxamide]",0.054
23,"CC(C)(C)c1noc(C23CCC(CN(C(=O)C45CC(F)(C4)C5)c4cccc(-c5noc(C6(C)CC6)n5)c4)(CC2)CC3)n1 [Example 176, N-((4-(3-(tert-butyl)-1,2,4-oxadiazol-5-yl)bicyclo[2.2.2]octan-1-yl)methyl)-3-fluoro-N-(3-(5-(1-methylcyclopropyl)-1,2,4-oxadiazol-3-yl)phenyl)bicyclo[1.1.1]pentane-1-carboxamide]",0.024

# Source: patent publication US11254663B2 (BRISTOL-MYERS SQUIBB COMPANY, priority 2019, dated 2022)
